Reference: PMC9804470, “A Formylglycine‐Peptide for the Site‐Directed Identification of Phosphotyrosine‐Mimetic Fragments” (Chemistry (Weinheim an Der Bergstrasse, Germany), 2022)
Where two headings read alike, the source gives them in different places.

Tests used:
[1] = target: T1, catalytic domain of human SHP2 (Homo sapiens, UniProt Q06124); assay: Enzyme activity assay of SHP2 catalytic domain with fluorogenic substrate DiFMUP; type: biochemical
T1 construct: catalytic domain of human SHP2 (amino acids 225–541); His10 (N); made in house; host or cells: E. coli B21 (DE3)
T1 sequence (Q06124 225-541): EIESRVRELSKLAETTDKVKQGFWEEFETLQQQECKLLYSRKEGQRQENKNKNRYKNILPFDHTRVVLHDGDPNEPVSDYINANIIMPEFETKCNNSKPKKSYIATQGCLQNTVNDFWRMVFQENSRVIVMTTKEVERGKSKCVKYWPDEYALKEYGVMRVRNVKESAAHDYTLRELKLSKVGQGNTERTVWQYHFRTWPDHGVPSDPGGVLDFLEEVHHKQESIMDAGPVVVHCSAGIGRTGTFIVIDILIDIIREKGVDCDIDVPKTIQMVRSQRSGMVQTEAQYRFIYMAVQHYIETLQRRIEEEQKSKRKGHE
Procedure: Enzyme activity assays of SHP2 and PTP1B: The catalytic activity of SHP2 catalytic domain and PTP1B were monitored using the fluorogenic substrate DiFMUP (6,8‐difluoro‐4‐methylumbelliferyl phosphate). Phosphatase reactions were performed at room temperature in 384‐well black plate, clear flat bottom, low flange, non‐binding surface (Corning, Cat# 3766) using a final volume of 20 μL and the following assay buffer conditions: 50 mM MOPS, pH=6.5, 200 mM NaCl, 50 μM TCEP, 0.03 % Tween‐20 (freshly added prior to each measurement). Test compounds were dissolved in DMSO or buffer at stock concentrations of 50, 20 or 10 mM and serially diluted. Enzyme (5 nM PTP1B or 2.5 nM SHP2 catalytic domain) and different concentrations of the tested compounds were incubated in buffer for 30–60 min at room temperature. […] Enzymatic reactions were started by adding DiFMUP (Invitrogen, cat# D6567) concentrations matching the experimentally determined KM values of the enzymes of 67 μM (PTP1B) or 72 μM (SHP2). Samples were excited at a wavelength of 360 nm and emitted fluorescence was recorded at 460 for 10 min using a microplate reader (infinite M1000 Pro, Tecan). Initial slope of fluorescence was determined in triplicate and IC50 values were calculated with GraphPad Prism 5. Determined IC50 values were converted into the corresponding KI values applying the Cheng Prusoff equation KI =IC50 /(1+[S]/KM ).

[2] = system: HGF‐induced tyrosine phosphorylation of ERK 1/2 in HeLa cells; assay: Western blot of p-ERK in HGF-stimulated HeLa cells; type: cell-based; settings: 1 h treatment; for Concentration giving (complete) dephosphorylation of Erk / inhibition of Erk phosphorylation: HGF 20 ng/well, Western blot p-ERK
Procedure: Cellular experiments: HeLa cells were cultivated in DMEM buffer with 10 % FCS in 75 cm^2 cell culture flasks at 37 °C, 5 % CO2. At confluency of about 75 %, cells were seeded in a density of 250,000 cells/mL in 6‐well plates and incubated for 24 h. Subsequently, medium was removed and replaced by DMEM buffer with 0.1 % BSA (1 mL per well) and incubated for another 16 h. Hepatocyte growth factor (HGF, 20 ng/well) and test compounds in different final concentrations (1 μL, in DMSO) were added. Control wells received the same amount of DMSO (final concentration 0.1 %) or no addition. Plates were incubated for 1 h, then washed with cold PBS and shaken with lysis buffer (mPer reagent ThermoScientific # 78501 with 1 mM NaF, 2 mM Na3VO4, 25× protease inhibitor) for 5 min. Cell lysates were transferred to Eppendorf cups and centrifuged at 4 °C with 10,000 g for 10 min. […] The blot was incubated with anti‐phospo‐ERK as primary antibody (Cell Signaling # 9106, dilution 1 : 2000 in TBS‐Tween/ 2 % BSA) overnight at 4 °C, washed 3×5 min with TBS‐Tween, and incubated with anti‐mouse IgG‐hrp as secondary antibody (Santa Cruz # sc2031, 1 : 6000 in TBS‐ Tween/ 2 % BSA, RT, 1.5 h). The blot was again washed 3×5 min with TBS‐Tween and imaged with the ECL system (ThermoScientific # 34080) at Syngene PXi Imager. From the same lysis sample, under the same conditions, ERK 1/2 and β‐tubulin were blotted. For β‐tubulin, the antibody incubation time was adjusted to 2 h at RT.

PTP1B = target: T2, PTP1B (Homo sapiens, UniProt P18031); assay: Dynamic ligation screening of nucleophilic fragments with formylglycine peptide 3, PTP1B; type: biochemical; settings: 3 100 μM pre-incubated 5 min, fragment 200 μM, 30 min RT before DiFMUP, triplicates
T2 construct: catalytic domain of human PTP1B (amino acids 1–321); His7 (N, cleaved yes); made in house; host or cells: E. coli Rosetta (DE3)
T2 sequence (P18031 1-321): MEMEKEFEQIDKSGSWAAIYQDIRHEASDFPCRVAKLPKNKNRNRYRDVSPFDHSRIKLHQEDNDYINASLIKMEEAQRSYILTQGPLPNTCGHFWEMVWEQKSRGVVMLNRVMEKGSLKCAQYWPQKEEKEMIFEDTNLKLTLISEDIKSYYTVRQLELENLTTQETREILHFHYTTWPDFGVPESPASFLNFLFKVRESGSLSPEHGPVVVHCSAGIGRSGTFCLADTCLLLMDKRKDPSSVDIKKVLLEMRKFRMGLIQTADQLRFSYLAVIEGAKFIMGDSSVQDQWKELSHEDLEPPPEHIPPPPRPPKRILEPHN
Procedure: Enzyme activity assays of SHP2 and PTP1B: The catalytic activity of SHP2 catalytic domain and PTP1B were monitored using the fluorogenic substrate DiFMUP (6,8‐difluoro‐4‐methylumbelliferyl phosphate). Phosphatase reactions were performed at room temperature in 384‐well black plate, clear flat bottom, low flange, non‐binding surface (Corning, Cat# 3766) using a final volume of 20 μL and the following assay buffer conditions: 50 mM MOPS, pH=6.5, 200 mM NaCl, 50 μM TCEP, 0.03 % Tween‐20 (freshly added prior to each measurement). Test compounds were dissolved in DMSO or buffer at stock concentrations of 50, 20 or 10 mM and serially diluted. Enzyme (5 nM PTP1B or 2.5 nM SHP2 catalytic domain) and different concentrations of the tested compounds were incubated in buffer for 30–60 min at room temperature. Measurements were performed with a final concentration of 2.5 % DMSO unless stated otherwise at 37 °C and were performed in triplicate. Enzymatic reactions were started by adding DiFMUP (Invitrogen, cat# D6567) concentrations matching the experimentally determined KM values of the enzymes of 67 μM (PTP1B) or 72 μM (SHP2). Samples were excited at a wavelength of 360 nm and emitted fluorescence was recorded at 460 for 10 min using a microplate reader (infinite M1000 Pro, Tecan). Initial slope of fluorescence was determined in triplicate and IC50 values were calculated with GraphPad Prism 5. Determined IC50 values were converted into the corresponding KI values applying the Cheng Prusoff equation KI =IC50 /(1+[S]/KM ).
Dynamic ligation screening of nucleophilic fragments with 3: Under assay conditions described above, PTP1B or SHP2 were pre‐incubated with 3 (100 μM) for 5 min. Subsequently, (200 μM) of the respective fragments were added and the resulting mixtures were incubated for 30 min at RT, prior to DiFMUP addition.

Row | Compound | Enhancement of inhibition of PTP1B by fragment in combination with peptide 3 (fragment ligation assay) (PTP1B) | further results
1 | O=C1/C(=N\Nc2ccc(NS(=O)(=O)C(F)(F)F)cc2)C(c2ccc([N+](=O)[O-])cc2)=NN1c1ccc([N+](=O)[O-])cc1 [Compound 22] |  | Ki ([1]; DiFMUP 72 μM (= KM), enzyme 1.5 nM, triplicate, from IC50 by Cheng-Prusoff (IC50/2), read-out: KI SHP2 (Table 2, footnote a)): 5.9 µM; Effect on HGF‐induced tyrosine phosphorylation of ERK 1/2 ([2]; Western blot, DMSO control): decreased; Concentration giving (complete) dephosphorylation of Erk / inhibition of Erk phosphorylation [2]: 25 µM
2 | O=C(O)COc1ccc(N/N=C2\C(=O)N(c3ccc([N+](=O)[O-])cc3)N=C2c2ccc([N+](=O)[O-])cc2)cc1 [Compound 23, (Z)‐2‐(4‐(2‐(1,3‐Bis‐(4‐nitrophenyl)‐5‐oxo‐1,5‐dihydro‐4H‐pyrazol‐4‐ylidene)‐hydrazinyl)‐phenoxy)‐acetic acid] |  | Ki ([1]; catalytic domain of SHP2, DiFMUP, from IC50 by Cheng-Prusoff, GS-493 sentence carries ref 26, read-out: KI SHP2): 0.275 µM; Concentration giving (complete) dephosphorylation of Erk / inhibition of Erk phosphorylation [2]: > 100 µM
3 | Nc1ccc(C(=O)O)cc1 [Compound F5, 4‐amino benzoic acid] | inactive | 
4 | Nc1ccc(C(F)(F)F)cc1 [Compound F8, 4‐amino‐phenyl‐trifluoromethane] | inactive | 
5 | O=P(O)(O)C(F)(F)C1CCNCC1 [Compound F9, 4‐piperidinyl‐difluoromethyl phosphonate] | inactive | 
6 | Nc1ccccc1 [aniline, reference compound] | entirely inactive | 
7 | N‐(4‐aminophenyl)‐sulfonic acid [Compound F6] | inactive | 
